{"source": "patent US20260265329A1", "about": "“POLYPEPTIDE AND DERIVATIVE THEREOF, COMPOSITION, AND USE THEREOF” (HANGZHOU SCIWIND BIOSCIENCES CO., LTD., priority 2023, published 2026)", "key": {"human amylin receptors": {"target": "T1, human amylin receptors (Homo sapiens, UniProt O60896+P30988)", "T1 construct": "host or cells: CHO-K1/Ga15/AMY3 cells, further stably transfected with a CRE-luciferase plasmid", "T1 sequence (P30988 25-474)": "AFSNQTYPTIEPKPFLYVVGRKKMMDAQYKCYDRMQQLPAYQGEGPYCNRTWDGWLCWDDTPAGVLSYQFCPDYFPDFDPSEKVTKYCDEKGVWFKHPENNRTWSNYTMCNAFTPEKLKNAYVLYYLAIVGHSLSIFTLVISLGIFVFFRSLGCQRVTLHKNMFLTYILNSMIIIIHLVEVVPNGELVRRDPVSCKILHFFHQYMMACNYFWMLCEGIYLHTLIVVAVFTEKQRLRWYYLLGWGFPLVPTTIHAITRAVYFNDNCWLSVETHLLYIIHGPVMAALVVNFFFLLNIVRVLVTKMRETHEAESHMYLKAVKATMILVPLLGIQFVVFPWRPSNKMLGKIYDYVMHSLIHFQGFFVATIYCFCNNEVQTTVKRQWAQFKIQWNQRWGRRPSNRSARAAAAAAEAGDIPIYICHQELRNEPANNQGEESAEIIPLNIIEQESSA", "T1 sequence (O60896 24-148 partner)": "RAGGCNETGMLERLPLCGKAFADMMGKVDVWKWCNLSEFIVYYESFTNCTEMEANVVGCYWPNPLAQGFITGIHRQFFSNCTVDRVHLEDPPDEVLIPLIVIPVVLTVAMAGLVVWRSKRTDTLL", "test": "Luciferase assay in stably transfected amylin receptor/CRE-luc CHO cell line", "type": "cell-based", "settings": "for Relative activity: EC50 ratio of Cagrilintide to the compound, Cagrilintide 100%; for EC50: amylin receptor/CRE-luc CHO cells, 24 hours incubation, luminescence"}, "[1]": {"test": "Heat accelerated stability assay, 40° C., detection on 10 d and 20 d", "type": "physicochemical", "settings": "1 mg/mL, pH about 7.4, 40° C.", "description": "The derivatives (1 mg/mL) were mixed with sodium dihydrogen phosphate (1.42 mg/mL) and dissolved in ultrapure water. After adjusting pH to about 7.4 with hydrochloric acid/sodium hydroxide, the solution was filtered into a sterilized vial in a clean bench using a 0.22 μm sterile filter. The vial was then capped and placed into the stability test chamber at 40° C. Detections were made on 10d and 20d, and during the assay changes in the characteristics and properties of the polypeptides were observed and recorded. The sample was then centrifuged for 3 min at 10000 rpm at 4° C., and the supernatant was transferred to a liquid phase sample vial for detecting the concentration and purity of the polypeptides using liquid phase chromatography described as below.\nFlow rate: 1.0 mL/min; Autosampler temperature: 25° C.; Column temperature: 25° C.; Detection wavelength: 214 nm; Mobile phase A: 110 mM phosphate buffer (pH 5.8): ACN=90:10; Mobile phase B: ACN: IPA: H2O=85:5:10; and Gradient of elution listed in Table 6: […]"}}, "note": "Starred links: 1 amine or outer side, 2 acyl side, 3 side chain; linkers in the order of their positions; H or OH if unused. Non-standard residues stand in square brackets, D forms with d. Residues, ends and D or L forms follow the SMILES beside them. *: point of attachment. C20 diacid = O=C(O)CCCCCCCCCCCCCCCCCCC(=O)*; γGlu = O=C(O)[C@H](CCC(=O)[*:2])N[*:1]; Hyp = O=C(O)[C@@H]1C[C@@H](O)CN1", "data": [{"smiles": "CC[C@H](C)[C@H](NC(=O)[C@@H]1CCCN1C(=O)[C@H](CCCCN)NC(=O)[C@H](CC(C)C)NC(=O)[C@H](CC(N)=O)NC(=O)CNC(=O)[C@H](CO)NC(=O)[C@H](CO)NC(=O)[C@H](Cc1c[nH]cn1)NC(=O)[C@H](CCCNC(=N)N)NC(=O)[C@H](CC(C)C)NC(=O)[C@H](Cc1ccccc1)NC(=O)[C@H](CC(=O)O)NC(=O)[C@H](C)NC(=O)[C@H](CC(C)C)NC(=O)[C@H](CCCNC(=N)N)NC(=O)[C@H](CCC(N)=O)NC(=O)[C@@H](NC(=O)[C@H](C)NC(=O)[C@H](C)NC(=O)[C@@H](NC(=O)[C@H](CO)NC(=O)[C@H](CC(C)C)NC(=O)[C@H](CCC(N)=O)NC(=O)[C@H](CO)NC(=O)[C@H](C)NC(=O)CC[C@H](NC(=O)CCCCCCCCCCCCCCCCCCC(=O)O)C(=O)O)[C@@H](C)O)[C@@H](C)O)C(=O)N[C@@H](CC(C)C)C(=O)N1CCC[C@H]1C(=O)N1CCC[C@H]1C(=O)N[C@H](C(=O)N[C@@H](CC(N)=O)C(=O)N[C@H](C(=O)NCC(=O)N[C@@H](CO)C(=O)N[C@@H](CC(N)=O)C(=O)N[C@H](C(=O)N1C[C@H](O)C[C@H]1C(N)=O)[C@@H](C)O)C(C)C)[C@@H](C)O", "note": "[M51] ({C20 diacid-γGlu}-ASQLSTAATQRLADFLRHSSGNLKPILPPTNVGSNT[Hyp]-NH2)", "values": [{"measurement": "Relative activity", "setting": "human amylin receptors", "value": 163, "unit": "%"}, {"measurement": "EC50", "setting": "human amylin receptors", "value": 80, "unit": "pM"}, {"measurement": "Reduction in purity, 10 d", "setting": "[1]", "value": 23.4, "unit": "%"}, {"measurement": "Reduction in purity, 20 d", "setting": "[1]", "value": 35.42, "unit": "%"}]}, {"smiles": "CC[C@H](C)[C@H](NC(=O)[C@@H]1CCCN1C(=O)[C@H](CCCCN)NC(=O)[C@H](CC(C)C)NC(=O)[C@H](CC(N)=O)NC(=O)[C@H](Cc1c[nH]cn1)NC(=O)[C@H](CO)NC(=O)[C@H](CO)NC(=O)[C@H](Cc1c[nH]cn1)NC(=O)[C@H](CCCNC(=N)N)NC(=O)[C@H](CC(C)C)NC(=O)[C@H](Cc1ccccc1)NC(=O)[C@H](CC(=O)O)NC(=O)[C@H](C)NC(=O)[C@H](CC(C)C)NC(=O)[C@H](CCCNC(=N)N)NC(=O)[C@H](CCC(N)=O)NC(=O)[C@@H](NC(=O)[C@H](C)NC(=O)[C@H](C)NC(=O)[C@@H](NC(=O)[C@H](CO)NC(=O)[C@H](CC(C)C)NC(=O)[C@H](CCC(N)=O)NC(=O)[C@H](CO)NC(=O)[C@H](C)NC(=O)CC[C@H](NC(=O)CCCCCCCCCCCCCCCCCCC(=O)O)C(=O)O)[C@@H](C)O)[C@@H](C)O)C(=O)N[C@@H](CC(C)C)C(=O)N1CCC[C@H]1C(=O)N1CCC[C@H]1C(=O)N[C@H](C(=O)N[C@@H](CC(N)=O)C(=O)N[C@H](C(=O)NCC(=O)N[C@@H](CO)C(=O)N[C@@H](CC(N)=O)C(=O)N[C@H](C(=O)N1C[C@H](O)C[C@H]1C(N)=O)[C@@H](C)O)C(C)C)[C@@H](C)O", "note": "[M52] ({C20 diacid-γGlu}-ASQLSTAATQRLADFLRHSSHNLKPILPPTNVGSNT[Hyp]-NH2)", "values": [{"measurement": "Relative activity", "setting": "human amylin receptors", "value": 178, "unit": "%"}, {"measurement": "EC50", "setting": "human amylin receptors", "value": 90, "unit": "pM"}, {"measurement": "Reduction in purity, 10 d", "setting": "[1]", "value": 7.91, "unit": "%"}, {"measurement": "Reduction in purity, 20 d", "setting": "[1]", "value": 15.42, "unit": "%"}]}, {"smiles": "CC[C@H](C)[C@H](NC(=O)[C@@H]1CCCN1C(=O)[C@H](CCCCN)NC(=O)[C@H](CC(C)C)NC(=O)[C@H](CC(N)=O)NC(=O)[C@H](CCCCN)NC(=O)[C@H](CO)NC(=O)[C@H](CO)NC(=O)[C@H](Cc1c[nH]cn1)NC(=O)[C@H](CCCNC(=N)N)NC(=O)[C@H](CC(C)C)NC(=O)[C@H](Cc1ccccc1)NC(=O)[C@H](CC(=O)O)NC(=O)[C@H](C)NC(=O)[C@H](CC(C)C)NC(=O)[C@H](CCCNC(=N)N)NC(=O)[C@H](CCC(N)=O)NC(=O)[C@@H](NC(=O)[C@H](C)NC(=O)[C@H](C)NC(=O)[C@@H](NC(=O)[C@H](CO)NC(=O)[C@H](CC(C)C)NC(=O)[C@H](CCC(N)=O)NC(=O)[C@H](CO)NC(=O)[C@H](C)NC(=O)CC[C@H](NC(=O)CCCCCCCCCCCCCCCCCCC(=O)O)C(=O)O)[C@@H](C)O)[C@@H](C)O)C(=O)N[C@@H](CC(C)C)C(=O)N1CCC[C@H]1C(=O)N1CCC[C@H]1C(=O)N[C@H](C(=O)N[C@@H](CC(N)=O)C(=O)N[C@H](C(=O)NCC(=O)N[C@@H](CO)C(=O)N[C@@H](CC(N)=O)C(=O)N[C@H](C(=O)N1C[C@H](O)C[C@H]1C(N)=O)[C@@H](C)O)C(C)C)[C@@H](C)O", "note": "[M53] ({C20 diacid-γGlu}-ASQLSTAATQRLADFLRHSSKNLKPILPPTNVGSNT[Hyp]-NH2)", "values": [{"measurement": "Relative activity", "setting": "human amylin receptors", "value": 200, "unit": "%"}, {"measurement": "EC50", "setting": "human amylin receptors", "value": 80, "unit": "pM"}, {"measurement": "Reduction in purity, 10 d", "setting": "[1]", "value": 11.82, "unit": "%"}, {"measurement": "Reduction in purity, 20 d", "setting": "[1]", "value": 19.98, "unit": "%"}]}, {"smiles": "CC[C@H](C)[C@H](NC(=O)[C@@H]1CCCN1C(=O)[C@H](CCCCN)NC(=O)[C@H](CC(C)C)NC(=O)[C@H](CC(N)=O)NC(=O)[C@H](CCCNC(=N)N)NC(=O)[C@H](CO)NC(=O)[C@H](CO)NC(=O)[C@H](Cc1c[nH]cn1)NC(=O)[C@H](CCCNC(=N)N)NC(=O)[C@H](CC(C)C)NC(=O)[C@H](Cc1ccccc1)NC(=O)[C@H](CC(=O)O)NC(=O)[C@H](C)NC(=O)[C@H](CC(C)C)NC(=O)[C@H](CCCNC(=N)N)NC(=O)[C@H](CCC(N)=O)NC(=O)[C@@H](NC(=O)[C@H](C)NC(=O)[C@H](C)NC(=O)[C@@H](NC(=O)[C@H](CO)NC(=O)[C@H](CC(C)C)NC(=O)[C@H](CCC(N)=O)NC(=O)[C@H](CO)NC(=O)[C@H](C)NC(=O)CC[C@H](NC(=O)CCCCCCCCCCCCCCCCCCC(=O)O)C(=O)O)[C@@H](C)O)[C@@H](C)O)C(=O)N[C@@H](CC(C)C)C(=O)N1CCC[C@H]1C(=O)N1CCC[C@H]1C(=O)N[C@H](C(=O)N[C@@H](CC(N)=O)C(=O)N[C@H](C(=O)NCC(=O)N[C@@H](CO)C(=O)N[C@@H](CC(N)=O)C(=O)N[C@H](C(=O)N1C[C@H](O)C[C@H]1C(N)=O)[C@@H](C)O)C(C)C)[C@@H](C)O", "note": "[M54] ({C20 diacid-γGlu}-ASQLSTAATQRLADFLRHSSRNLKPILPPTNVGSNT[Hyp]-NH2)", "values": [{"measurement": "Relative activity", "setting": "human amylin receptors", "value": 267, "unit": "%"}, {"measurement": "EC50", "setting": "human amylin receptors", "value": 60, "unit": "pM"}, {"measurement": "Reduction in purity, 10 d", "setting": "[1]", "value": 11.67, "unit": "%"}, {"measurement": "Reduction in purity, 20 d", "setting": "[1]", "value": 20.56, "unit": "%"}]}]}
